Test results published in ChEMBL document CHEMBL4483862, “Open-source discovery of chemical leads for next-generation chemoprotective antimalarials” (2018).

System: Plasmodium berghei
Test: Luciferase/luciferin-expressing antifolate-resistant parasites were used to infect a culture of HepG2 cells that were pre-incubated with compounds. Infected hepatocytes emit light due to the luciferase reaction. Assay results are presented as the percent inhibition of light emission compared to control. […]
Assay type: functional
Settings: sporozoite; for IC90: read-out: LUCIFERASE INFECTION ASSAY - IC90
[1] = read-out: LUCIFERASE INFECTION ASSAY - IC50

Row | SMILES | IC90 [µM] | IC50 [1] [µM] | also measured
1 | CCN(CC)Cc1ccc(OCC(=O)Nc2ccc(Cl)cc2)c2ncccc12 | > 10 |  | IC50 (FFLUC_HILL_SLOPE 1.82, FFLUC_R_SQUARED 0.795, HEPG2TOX_HILL_SLOPE 1.24, HEPG2TOX_R_SQUARED 0.929, read-out: LUCIFERASE INFECTION ASSAY - IC50): > 10 µM
2 | CCOc1cccc(-c2cn3c(-c4ccsc4)cnc3cn2)c1 | 9.69 | 5.53 | 
3 | Cc1ccc2c(c1)C(c1ccccc1C(F)(F)F)CC(=O)N2 (stereo unspecified) | > 10.8 |  | IC50 (HEPG2TOX_HILL_SLOPE 2.11, HEPG2TOX_R_SQUARED 0.713, PBLUC_HILL_SLOPE 2.64, PBLUC_R_SQUARED 0.143, read-out: LUCIFERASE INFECTION ASSAY - IC50): 5.8 µM
4 | Cc1ncc(CO)c(/C=N/NC(=S)Nc2ccc(C(C)C)cc2)c1O | > 10 |  | IC50 (HEPG2TOX_HILL_SLOPE 0.0695, HEPG2TOX_R_SQUARED 0.0364, read-out: LUCIFERASE INFECTION ASSAY - IC50): > 10 µM
5 | O=C(NCCc1nc(-c2ccccc2)no1)c1cc2cc(Cl)ccc2o1 | > 8.97 |  | IC50 (PBLUC_HILL_SLOPE 0.5, PBLUC_R_SQUARED 0.259, read-out: LUCIFERASE INFECTION ASSAY - IC50): > 8.97 µM
6 | O=C1C(=O)N(Cc2cccc(Cl)c2)c2c1cccc2C(F)(F)F | 6.09 |  | IC50 (HEPG2TOX_HILL_SLOPE 13.2, HEPG2TOX_R_SQUARED 0.969, PBLUC_HILL_SLOPE 2.5, PBLUC_R_SQUARED 0.616, read-out: LUCIFERASE INFECTION ASSAY - IC50): 2.53 µM
7 | O=C(Nc1nc2ccc([N+](=O)[O-])cc2s1)c1cccc(Cl)c1 | > 10 |  | IC50 (HEPG2TOX_HILL_SLOPE 0.963, HEPG2TOX_R_SQUARED 0.986, PBLUC_HILL_SLOPE 0.779, PBLUC_R_SQUARED 0.754, read-out: LUCIFERASE INFECTION ASSAY - IC50): 0.754 µM
8 | O=C(c1ccccc1)C(Sc1nnc(Cc2cccs2)n1CCc1ccccc1)c1ccccc1 (stereo unspecified) | > 10 | > 10 | 
9 | Clc1ccc(OCCN2CCN(c3ccc4nnnn4n3)CC2)cc1 | > 10 |  | IC50 (PBLUC_HILL_SLOPE 2.76, PBLUC_R_SQUARED 0.489, read-out: LUCIFERASE INFECTION ASSAY - IC50): 6.13 µM
10 | CNc1snc(C)c1C(=O)OCc1nc(C(C)C)no1 | 6.24 | 6.11 | 
11 | Cc1ccc(O)c(-c2cc(C(=O)Nc3ccccc3C(F)(F)F)[nH]n2)c1 | > 9.13 | > 9.13 | 
12 | CCN(CC)CC(O)COc1cc(C(F)(F)F)ccn1 (stereo unspecified) | > 11.3 | > 11.3 | 
13 | Cc1cc(-c2cn3c(-c4ccc(CO)cc4)cnc3cn2)cc(C)c1O | 4.31 |  | IC50 (HEPG2TOX_HILL_SLOPE 1.62, HEPG2TOX_R_SQUARED 0.965, PBLUC_HILL_SLOPE 8.31, PBLUC_R_SQUARED 0.637, read-out: LUCIFERASE INFECTION ASSAY - IC50): 3.31 µM
14 | Cc1nn(-c2ccccc2Cl)c2sc(C(=O)Nc3ccc(-c4nnc5n4CCCCC5)cc3)cc12 | > 10 | > 10 | 
15 | Cc1ccc(S(=O)(=O)N2CCCC(C(=O)NNC(=O)CCNC(=O)/C=C/c3ccccc3)C2)cc1 (stereo unspecified) | > 10 | > 10 | 
16 | Cc1cccc(Nc2cc3[nH]c(-c4ccc(C(=O)N(C)C)cc4)cc3cn2)c1 | > 10 | 6.24 | 
17 | Cc1ncsc1CCOC(=O)c1cc(Cl)c2c(c1)OCCO2 | > 10 | > 10 | 
18 | CC(C)N(C(=O)CSc1nnnn1C)c1ccc(Nc2ccccc2)cc1 | > 10 |  | IC50 (PBLUC_HILL_SLOPE 2.1, PBLUC_R_SQUARED 0.364, read-out: LUCIFERASE INFECTION ASSAY - IC50): > 10 µM
19 | Cn1ccnc1Sc1ncnc2ccsc12 | 9.45 |  | IC50 (PBLUC_HILL_SLOPE 4.08, PBLUC_R_SQUARED 0.748, read-out: LUCIFERASE INFECTION ASSAY - IC50): 5.51 µM
20 | COc1ccc(-c2cn(CC(=O)c3ccccc3)c3[n+]2-c2ccccc2CC3)cc1 | > 10 |  | IC50 (HEPG2TOX_HILL_SLOPE 1.82, HEPG2TOX_R_SQUARED 0.932, PBLUC_HILL_SLOPE 2.71, PBLUC_R_SQUARED 0.363, read-out: LUCIFERASE INFECTION ASSAY - IC50): 4.75 µM
21 | c1ccc2cc(-c3cnc4sc(NCc5ccncc5)nn34)ccc2c1 | > 9.23 | > 9.23 | 
22 | Cc1nn(Cc2ccccc2Cl)c(Cl)c1C(=O)OC(C(=O)c1c[nH]c2ccccc12)c1ccccc1 (stereo unspecified) | > 10 |  | IC50 (PBLUC_HILL_SLOPE 3.17, PBLUC_R_SQUARED 0.115, read-out: LUCIFERASE INFECTION ASSAY - IC50): 6.36 µM
23 | CC(NCC(O)COC1CCC(C(C)(C)C)CC1)c1ccccc1 (stereo unspecified) | > 8.92 |  | IC50 (PBLUC_HILL_SLOPE 10.1, PBLUC_R_SQUARED 0.42, read-out: LUCIFERASE INFECTION ASSAY - IC50): 7.39 µM
24 | CC(C)(C)c1cc(C(=O)Nc2cccc(Cl)c2)n(Cc2ccc(Cl)cc2Cl)n1 | > 7.56 |  | IC50 (FFLUC_HILL_SLOPE 10.5, FFLUC_R_SQUARED 0.365, read-out: LUCIFERASE INFECTION ASSAY - IC50): > 7.56 µM

Row | SMILES | IC90 [µM] | IC50 [1] [µM] | also measured
25 | Oc1c(C(Nc2ncccn2)c2ccc(F)cc2)ccc2cccnc12 (stereo unspecified) | 3.55 |  | IC50 (FFLUC_HILL_SLOPE 12.3, FFLUC_R_SQUARED 0.0325, HEPG2TOX_HILL_SLOPE 1.16, HEPG2TOX_R_SQUARED 0.848, PBLUC_HILL_SLOPE 14, PBLUC_R_SQUARED 0.306, read-out: LUCIFERASE INFECTION ASSAY - IC50): 3.03 µM
26 | Cn1c(SCC(=O)c2ccc(Cl)cc2)nnc1-c1ccc(C(C)(C)C)cc1 | > 8.25 |  | IC50 (PBLUC_HILL_SLOPE 11.7, PBLUC_R_SQUARED 0.0355, read-out: LUCIFERASE INFECTION ASSAY - IC50): > 8.25 µM
27 | C/C(=N\NC(=O)c1ccc(Cl)cc1)c1ccccc1O | 4.32 |  | IC50 (HEPG2TOX_HILL_SLOPE 1.4, HEPG2TOX_R_SQUARED 0.87, PBLUC_HILL_SLOPE 14.3, PBLUC_R_SQUARED 0.668, read-out: LUCIFERASE INFECTION ASSAY - IC50): 3.7 µM
28 | CCOc1cc(C(=O)NCCNC(=O)C(C)C)cc(OCC)c1OCC | > 10 | > 10 | 
29 | CNc1nc(NCc2cccc(OC)c2)c2sc(-c3ccccc3)cc2n1 | > 8.77 | > 8.77 | 
30 | CN(C)C(C(=O)c1ccccc1)C(c1ccc(F)cc1)c1ccc(F)cc1 (stereo unspecified) | > 10 | > 10 | 
31 | CCOC(=O)c1cc(NC(=O)Nc2ccc(Cl)c(Cl)c2)ccc1Oc1cncc(Cl)c1 | 4.18 |  | IC50 (HEPG2TOX_HILL_SLOPE 3.45, HEPG2TOX_R_SQUARED 0.989, PBLUC_HILL_SLOPE 3.28, PBLUC_R_SQUARED 0.474, read-out: LUCIFERASE INFECTION ASSAY - IC50): 2.14 µM
32 | CCn1c(SCc2csc(N(C(C)=O)c3cccc(C)c3)n2)nc2ccccc2c1=O | > 10 |  | IC50 (PBLUC_HILL_SLOPE 13.6, PBLUC_R_SQUARED 0.153, read-out: LUCIFERASE INFECTION ASSAY - IC50): > 10 µM
33 | Oc1ccc(Br)cc1/C=N/NC(=S)NC1CC2CCC1C2 (stereo unspecified) | 8.93 |  | IC50 (HEPG2TOX_HILL_SLOPE 9.58, HEPG2TOX_R_SQUARED 0.779, PBLUC_HILL_SLOPE 13.3, PBLUC_R_SQUARED 0.143, read-out: LUCIFERASE INFECTION ASSAY - IC50): 7.57 µM
34 | c1ccc(-c2nc(-c3ccccc3)c(-c3ccccc3)o2)cc1 | > 11.1 |  | IC50 (FFLUC_HILL_SLOPE 6.72, FFLUC_R_SQUARED 0.191, read-out: LUCIFERASE INFECTION ASSAY - IC50): > 11.1 µM
35 | CN1C(=O)N(CCc2ccccc2)C(=O)C12CCN(Cc1ccc3c(c1)Cc1ccccc1-3)CC2 | > 7.09 | 6.49 | 
36 | O=C(c1[nH]nc2ccccc12)N1CCN(CCOc2ccc(Cl)cc2)CC1 | > 10 |  | IC50 (HEPG2TOX_HILL_SLOPE 12.2, HEPG2TOX_R_SQUARED 0.374, PBLUC_HILL_SLOPE 13.5, 22.4, PBLUC_R_SQUARED 0.492, 0.389, read-out: LUCIFERASE INFECTION ASSAY - IC50): 9.12 µM
37 | FC(F)(F)c1cnc(N/N=C/c2cn(-c3ccccc3)nc2-c2cc3ccccc3o2)c(Cl)c1 | > 10 |  | IC50 (HEPG2TOX_HILL_SLOPE 5.1, HEPG2TOX_R_SQUARED 0.771, read-out: LUCIFERASE INFECTION ASSAY - IC50): > 10 µM
38 | COc1cc(/C=N/Nc2nc(Cl)c(Cl)cc2Cl)ccc1OCC(=O)N1CC(C)OC(C)C1 (stereo unspecified) | > 10 | > 10 | 
39 | Cc1nc(=O)c2c([nH]1)NC(=O)CC2c1ccccc1C (stereo unspecified) | > 12.3 | > 12.3 | 
40 | CNC(=O)C1CN(C(=O)c2oc3ccc(OC)cc3c2C)c2ccccc2O1 (stereo unspecified) | > 10 |  | IC50 (HEPG2TOX_HILL_SLOPE 21.4, HEPG2TOX_R_SQUARED 0.941, read-out: LUCIFERASE INFECTION ASSAY - IC50): > 10 µM
41 | O=C(Cc1ccccc1)OC1(C(F)(F)F)C(=O)Nc2c1ccc1ccccc21 (stereo unspecified) | > 10 | > 10 | 
42 | Cc1c(-c2nc3ncc(Br)cc3[nH]2)cc(C#N)n1C | 9.96 |  | IC50 (FFLUC_HILL_SLOPE 1.06, FFLUC_R_SQUARED 0.775, HEPG2TOX_HILL_SLOPE 12.7, HEPG2TOX_R_SQUARED 0.745, PBLUC_HILL_SLOPE 2.08, PBLUC_R_SQUARED 0.626, read-out: LUCIFERASE INFECTION ASSAY - IC50): 3.46 µM
43 | O=C(CSc1ccccc1[N+](=O)[O-])NNC(=S)NC1CC2C=CC1C2 (stereo unspecified) | > 8.72 | > 8.72 | 
44 | CC(C)(C)c1cc(=O)n(-c2nc3ccc(Cl)cc3s2)[nH]1 | > 10.7 | > 10.7 | 
45 | FC(F)(F)c1cccc(Nc2nnnc3ccccc23)c1 | 3.71 |  | IC50 (PBLUC_HILL_SLOPE 1.72, PBLUC_R_SQUARED 0.746, read-out: LUCIFERASE INFECTION ASSAY - IC50): 1.03 µM
46 | O=C(Cc1csc(N2CCCC2=O)n1)Nc1nc(-c2ccc3c(c2)CCCC3)cs1 | > 10 | > 10 | 
47 | Cc1cc(/C=C(\C#N)c2nc3ccccc3s2)c(C)n1-c1ccc(F)cc1 | > 10 | > 10 | 
48 | COc1ccc(-c2noc(CCCCCNC(=O)c3ccc(-n4cnnn4)cc3)n2)cc1 | > 10 | > 10 | 
